Source: patent US11498899B2, “Nitrone herbicides” (FMC Corporation, priority 2016, dated 2022)

How the values were obtained:
[1] = system: barnyardgrass (Echinochloa crus-galli); assay: Test A preemergence, visual injury rating 0-100 (0 no effect, 100 complete control); format: in vivo
[2] = system: foxtail, giant (giant foxtail, Setaria faberii); assay: Test A preemergence, visual injury rating 0-100; format: in vivo
[3] = system: kochia (Kochia scoparia); assay: Test A preemergence, visual injury rating 0-100; format: in vivo
[4] = system: pigweed (Amaranthus retroflexus); assay: Test A preemergence, visual injury rating 0-100; format: in vivo
[5] = system: ragweed (common ragweed, Ambrosia elatior); assay: Test A preemergence, visual injury rating 0-100; format: in vivo
[6] = system: ryegrass, Italian (Italian ryegrass, Lolium multiflorum); assay: Test A preemergence, visual injury rating 0-100; format: in vivo
[7] = system: barnyardgrass (Echinochloa crus-galli); assay: Test A postemergence, visual injury rating 0-100; format: in vivo; conditions: 0 to 100 scale
[8] = system: blackgrass (Alopecurus myosuroides); assay: Test A postemergence, visual injury rating 0-100; format: in vivo; conditions: 0 to 100 scale
[9] = system: corn (Zea mays); assay: Test A postemergence, visual injury rating 0-100; format: in vivo; conditions: 0 to 100 scale
[10] = system: foxtail, giant (giant foxtail, Setaria faberii); assay: Test A postemergence, visual injury rating 0-100; format: in vivo; conditions: 0 to 100 scale
[11] = system: galium (catchweed bedstraw, Galium aparine); assay: Test A postemergence, visual injury rating 0-100; format: in vivo; conditions: 0 to 100 scale
[12] = system: kochia (Kochia scoparia); assay: Test A postemergence, visual injury rating 0-100; format: in vivo; conditions: 0 to 100 scale
[13] = system: pigweed (Amaranthus retroflexus); assay: Test A postemergence, visual injury rating 0-100; format: in vivo; conditions: 0 to 100 scale
[14] = system: ragweed (common ragweed, Ambrosia elatior); assay: Test A postemergence, visual injury rating 0-100; format: in vivo; conditions: 0 to 100 scale
[15] = system: ryegrass, Italian (Italian ryegrass, Lolium multiflorum); assay: Test A postemergence, visual injury rating 0-100; format: in vivo; conditions: 0 to 100 scale
[16] = system: wheat (Triticum aestivum); assay: Test A postemergence, visual injury rating 0-100; format: in vivo; conditions: 0 to 100 scale
[17] = system: ducksalad (Heteranthera limosa); assay: Test B flooded paddy test, visual rating 0-100; conditions: Flood, 250 g ai/ha, applied to paddy water, rated after 13 to 15 days
[18] = system: barnyardgrass (Echinochloa crus-galli); assay: Test B flooded paddy test, visual rating 0-100; conditions: Flood, 250 g ai/ha, applied to paddy water, rated after 13 to 15 days
[19] = system: rice (Oryza sativa); assay: Test B flooded paddy test, visual rating 0-100 (0 no effect, 100 complete control); conditions: Flood, 250 g ai/ha, applied to paddy water, rated after 13 to 15 days

SMILES	Barnyardgrass plant response rating (0 to 100 scale) ([1]; 125 g ai/ha)	Barnyardgrass plant response rating (0 to 100 scale) ([1]; 500 g ai/ha)	Foxtail, Giant plant response rating (0 to 100 scale) ([2]; 125 g ai/ha)	Foxtail, Giant plant response rating (0 to 100 scale) ([2]; 500 g ai/ha)	Kochia plant response rating (0 to 100 scale) ([3]; 125 g ai/ha)	Kochia plant response rating (0 to 100 scale) ([3]; 500 g ai/ha)	Pigweed plant response rating (0 to 100 scale) ([4]; 125 g ai/ha)	Pigweed plant response rating (0 to 100 scale) ([4]; 500 g ai/ha)	Ragweed plant response rating (0 to 100 scale) ([5]; 125 g ai/ha)	Ragweed plant response rating (0 to 100 scale) ([5]; 500 g ai/ha)	Ryegrass, Italian plant response rating (0 to 100 scale) ([6]; 125 g ai/ha)	Ryegrass, Italian plant response rating (0 to 100 scale) ([6]; 500 g ai/ha)	Barnyardgrass plant response rating ([7]; 125 g ai/ha)	Barnyardgrass plant response rating ([7]; 500 g ai/ha)	Blackgrass plant response rating ([8]; 125 g ai/ha)	Blackgrass plant response rating ([8]; 500 g ai/ha)	Corn plant response rating ([9]; 125 g ai/ha)	Corn plant response rating ([9]; 500 g ai/ha)	Foxtail, Giant plant response rating ([10]; 125 g ai/ha)	Foxtail, Giant plant response rating ([10]; 500 g ai/ha)	also measured
CC1=[N+]([O-])C(C(=O)Nc2cccc(F)c2F)C(c2ccc(C)c(Br)c2)C1 (racemic) [Compound 71]	90	90	80	90	10	80	0	40	0	60	30	90	80	90	40	70	70	90	40	60	Galium plant response rating ([11]; 125 g ai/ha): 30; Galium plant response rating ([11]; 500 g ai/ha): 50; Kochia plant response rating ([12]; 125 g ai/ha): 10; Kochia plant response rating ([12]; 500 g ai/ha): 50; Pigweed plant response rating ([13]; 125 g ai/ha): 20; Pigweed plant response rating ([13]; 500 g ai/ha): 10; Ragweed plant response rating ([14]; 125 g ai/ha): 0; Ragweed plant response rating ([14]; 500 g ai/ha): 50; Ryegrass, Italian plant response rating ([15]; 125 g ai/ha): 60; Ryegrass, Italian plant response rating ([15]; 500 g ai/ha): 80; Wheat plant response rating ([16]; 125 g ai/ha): 20; Wheat plant response rating ([16]; 500 g ai/ha): 70; Ducksalad plant response rating (0 to 100 scale) [17]: 0; Barnyardgrass plant response rating (0 to 100 scale) [18]: 0; Rice plant response rating (0 to 100 scale) [19]: 0
CC1=[N+]([O-])C(C(=O)Nc2cccc(F)c2F)C(c2ccc(C)c(Cl)c2)C1 (racemic) [Compound 72]	80	90	90	90	20	80	30	30	20	90	30	90	90	90	60	70	40	70	50	80	Galium plant response rating ([11]; 125 g ai/ha): 50; Galium plant response rating ([11]; 500 g ai/ha): 50; Kochia plant response rating ([12]; 125 g ai/ha): 0; Kochia plant response rating ([12]; 500 g ai/ha): 40; Pigweed plant response rating ([13]; 125 g ai/ha): 10; Pigweed plant response rating ([13]; 500 g ai/ha): 30; Ragweed plant response rating ([14]; 125 g ai/ha): 0; Ragweed plant response rating ([14]; 500 g ai/ha): 50; Ryegrass, Italian plant response rating ([15]; 125 g ai/ha): 30; Ryegrass, Italian plant response rating ([15]; 500 g ai/ha): 70; Wheat plant response rating ([16]; 125 g ai/ha): 30; Wheat plant response rating ([16]; 500 g ai/ha): 80; Ducksalad plant response rating (0 to 100 scale) [17]: 15; Barnyardgrass plant response rating (0 to 100 scale) [18]: 40; Rice plant response rating (0 to 100 scale) [19]: 0
CC1=[N+]([O-])C(C(=O)Nc2cccc(F)c2F)C(c2ccc(C(F)(F)F)c(Br)c2)C1 (racemic) [Compound 73]	90	90	80	90	20	60	40	70	50	80	50	90	30	70	40	80	50	70	40	70	Galium plant response rating ([11]; 125 g ai/ha): 10; Galium plant response rating ([11]; 500 g ai/ha): 50; Kochia plant response rating ([12]; 125 g ai/ha): 10; Kochia plant response rating ([12]; 500 g ai/ha): 20; Pigweed plant response rating ([13]; 125 g ai/ha): 30; Pigweed plant response rating ([13]; 500 g ai/ha): 70; Ragweed plant response rating ([14]; 125 g ai/ha): 0; Ragweed plant response rating ([14]; 500 g ai/ha): 20; Ryegrass, Italian plant response rating ([15]; 125 g ai/ha): 0; Ryegrass, Italian plant response rating ([15]; 500 g ai/ha): 60; Wheat plant response rating ([16]; 125 g ai/ha): 0; Wheat plant response rating ([16]; 500 g ai/ha): 60; Ducksalad plant response rating (0 to 100 scale) [17]: 0; Barnyardgrass plant response rating (0 to 100 scale) [18]: 0; Rice plant response rating (0 to 100 scale) [19]: 0
COc1ccc(C2CC(C)=[N+]([O-])C2C(=O)Nc2cccc(F)c2F)cc1C(F)(F)F (racemic) [Compound 74]	90	90	90	90	30	90	0	60	40	40	90	90	80	90	70	70	40	80	60	80	Galium plant response rating ([11]; 125 g ai/ha): 20; Galium plant response rating ([11]; 500 g ai/ha): 50; Kochia plant response rating ([12]; 125 g ai/ha): 0; Kochia plant response rating ([12]; 500 g ai/ha): 10; Pigweed plant response rating ([13]; 125 g ai/ha): 20; Pigweed plant response rating ([13]; 500 g ai/ha): 40; Ragweed plant response rating ([14]; 125 g ai/ha): 0; Ragweed plant response rating ([14]; 500 g ai/ha): 20; Ryegrass, Italian plant response rating ([15]; 125 g ai/ha): 0; Ryegrass, Italian plant response rating ([15]; 500 g ai/ha): 50; Wheat plant response rating ([16]; 125 g ai/ha): 60; Wheat plant response rating ([16]; 500 g ai/ha): 60; Ducksalad plant response rating (0 to 100 scale) [17]: 20; Barnyardgrass plant response rating (0 to 100 scale) [18]: 45; Rice plant response rating (0 to 100 scale) [19]: 0
CC1=[N+]([O-])C(C(=O)Nc2cccc(F)c2F)C(c2cccc(C)c2C)C1 (racemic) [Compound 77]	90	90	90	90	10	70	20	70	30	80	10	90	80	90	60	80	50	60	90	90	Galium plant response rating ([11]; 125 g ai/ha): 50; Galium plant response rating ([11]; 500 g ai/ha): 70; Kochia plant response rating ([12]; 125 g ai/ha): 0; Kochia plant response rating ([12]; 500 g ai/ha): 20; Pigweed plant response rating ([13]; 125 g ai/ha): 0; Pigweed plant response rating ([13]; 500 g ai/ha): 20; Ragweed plant response rating ([14]; 125 g ai/ha): 20; Ragweed plant response rating ([14]; 500 g ai/ha): 60; Ryegrass, Italian plant response rating ([15]; 125 g ai/ha): 40; Ryegrass, Italian plant response rating ([15]; 500 g ai/ha): 70; Wheat plant response rating ([16]; 125 g ai/ha): 50; Wheat plant response rating ([16]; 500 g ai/ha): 70; Ducksalad plant response rating (0 to 100 scale) [17]: 100; Barnyardgrass plant response rating (0 to 100 scale) [18]: 75; Rice plant response rating (0 to 100 scale) [19]: 0
